Reference: US10160771B2, “Hepatitis C virus inhibitors and uses thereof in preparation of drugs” (priority 2014, dated 2018)

Experiments:
[1] = Cell Titer-fluor cell activity assay in HCV-1b replicon cells (CC50); type: cell-based
Method: The EC50 and CC50 values of anti-HCV compounds were determined by HCV genotype 1a (HCV-1a) and 1B (HCV-1b) stable transfer replication (replicon) cells. The source of genotype 1a replicon is H77 clones containing K1691R, K2040R and S2204I adaptive mutations. The source of genotype 1b replicon is Con1 clones containing E1202G, T1280I and K1846T adaptive mutations.
HCV Replicon Cell Lines: HCV-1a and HCV-1b Cells
The compound powder was dissolved in 100% DMSO. Then the compound was diluted 5 times with 6 points, and added into the cell plate with Echo liquid handler. Ensure the final concentration of DMSO was 0.5%. Each compound was tested in double holes. Maximum initial concentration was 100, 10 or 1 nM, 5 times dilution, 6 points.
b) Cell Culture (HCV-1a or HCV-1b Replicon Cell):
1) absorbing the culture supernatant of the cell culture and washing the cells with 10 mL PBS.
2) adding preheated pancreatin to the washed cell culture flasks, rotating culture bottle to make the bottom of the culture bottle uniformly covered by pancreatin, then placed into 37° C., 5% CO2 incubator to digest.
3) suspending cells in each T150 culture flask with 10-15 mL culture medium, absorbing 0.1 mL liquid and diluting 2 times by trypan blue solution as counted.
4) diluting cells to 8×10^4/mL with the culture medium, adding the diluted cells into the compound-containing 96-well plate (Greiner, Cat.#655090) (100 μL/well, 8000 cells/well) with automatic liquid separator (Thermo Scientific). Then place into a 37° C., 5% CO2 incubator for 3 days. Cell control well: no compound, only containing 0.5% DMSO.
5) adding chemiluminescent substrate Cell Titer-fluor to the cell well, after incubation for 30 minutes, detecting the signal by chemiluminescence detection system Envison (Ex at 405 nm and read at 515 nm). The effect of the compounds on the activity of HCV replicon cells was analyzed according to the luminescence data, which was used to calculate the CC50 values.
The EC50 or CC50 values were obtained by nonlinear fitting analysis on inhibition percentage (inh %) data with GraphPad Prism software.

[2] = test system: HCV genotype 1b (HCV-1b) replicon cells; experiment: HCV genotype 1b replicon luciferase assay (EC50); type: cell-based, hepatitis C virus genotype 1b (Con1 clone); settings: Hepatitis C virus, 72 h, 3 days, luciferase (Bright-Glo)
How it was run: (§1)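 EC50 values come from nonlinear fitting of inhibition derived from replicon luciferase signal. Cells (8000/well) were treated 3 days with duplicate 6-point, 5-fold dilutions, starting at 100, 10 or 1 nM, with 0.5% DMSO.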

[3] = test system: HCV genotype 1a (HCV-1a) replicon cells; experiment: HCV genotype 1a replicon luciferase assay (EC50); type: cell-based, hepatitis C virus genotype 1a (H77 clone); settings: Hepatitis C virus, 72 h, 3 days, luciferase (Bright-Glo)
How it was run: as §1

SMILES | CC50 at 3 days [1] [nM] | EC50 [2] [nM] | EC50 [3] [nM]
COC(=O)N[C@H](C(=O)N1CCC[C@H]1c1cnc(-c2ccc(-c3ccc(-c4ncc(C5C6CCC(C6)[C@@H]5C(=O)N(NC(=O)OC)C(C)C)[nH]4)cc3)cc2OC)[nH]1)C(C)C (stereo partly drawn) [AA_166_B] | > 5 | 0.101 to 1 | 10 to 100
COC(=O)N[C@H](C(=O)N1CCC[C@H]1c1ncc(-c2ccc(-c3ccc(-c4cnc(C5C6CCC(C6)[C@@H]5C(=O)N(NC(=O)OC)C(C)C)[nH]4)cc3)c(C)c2)[nH]1)C(C)C (stereo partly drawn) [AA_167] | > 1 | 0.001 to 0.1 | 1 to 10
COC(=O)N[C@H](C(=O)N1CCC[C@H]1c1cnc(-c2ccc(-c3ccc(-c4ncc(C5C6CCC(C6)[C@H]5C(=O)N(NC(=O)OC)C(C)C)[nH]4)cc3)cc2C)[nH]1)C(C)C (stereo partly drawn) [AA_169_A] | > 5 | 0.001 to 0.1 | 1 to 10
COC(=O)N[C@H](C(=O)N1CCC[C@H]1c1cnc(-c2ccc(-c3ccc(-c4ncc(C5C6CCC(C6)[C@@H]5C(=O)N(NC(=O)OC)C(C)C)[nH]4)cc3)cc2C)[nH]1)C(C)C (stereo partly drawn) [AA_169_B] | > 5 | 0.001 to 0.1 | 10 to 100
COC(=O)N[C@H](C(=O)N1CCC[C@H]1c1ncc(-c2ccc(-c3ccc(-c4cnc(C5C6CCC(C6)[C@H]5C(=O)NCc5cccnc5)[nH]4)cc3)cc2)[nH]1)[C@@H](C)OC (stereo partly drawn) [AA_179_A] | > 1 | 0.001 to 0.1 | 1 to 10
COC(=O)N[C@H](C(=O)N1CCC[C@H]1c1ncc(-c2ccc(-c3ccc(-c4cnc(C5C6CCC(C6)[C@@H]5C(=O)NCc5cccnc5)[nH]4)cc3)cc2)[nH]1)[C@@H](C)OC (stereo partly drawn) [AA_179_B] | > 1 | 0.001 to 0.1 | 1 to 10
O=C(NCc1cccnc1)[C@H]1C2CCC(C2)C1c1ncc(-c2ccc(-c3ccc(-c4cnc([C@@H]5C6CCC(C6)[C@H]5C(=O)NCc5cccnc5)[nH]4)cc3)cc2)[nH]1 (stereo partly drawn) [AA_180] | > 10 | 1 to 10 | 10 to 100
COC(=O)N[C@H](C(=O)N1CCC[C@H]1c1ncc(-c2ccc(-c3ccc(-c4cnc([C@H]5CCCC[C@@H]5C(=O)NCc5cncc(C)c5)[nH]4)cc3)cc2)[nH]1)C(C)C [AA_184] | > 5 | 0.101 to 1 | 10 to 100
COC(=O)N[C@H](C(=O)N1CCC[C@H]1c1ncc(-c2ccc(-c3ccc(-c4cnc([C@H]5CCCC[C@@H]5C(=O)NCc5ccc(Cl)nc5)[nH]4)cc3)cc2)[nH]1)C(C)C [AA_185] | > 5 | 0.101 to 1 | 10 to 100
COC(=O)N[C@H](C(=O)N1CCC[C@H]1c1ncc(-c2ccc(-c3ccc(-c4cnc([C@H]5CCCC[C@@H]5C(=O)NC5(c6cccnc6)CC5)[nH]4)cc3)cc2)[nH]1)C(C)C [AA_186] | > 5 | 0.101 to 1 | 1 to 10
COC(=O)N[C@H](C(=O)N1CCC[C@H]1c1ncc(-c2ccc(-c3ccc(-c4cnc(C5C6CCC(C6)[C@@H]5C(=O)N(NC(=O)OC)C(C)C)[nH]4)cc3)c(OC)c2)[nH]1)C(C)C (stereo partly drawn) [AA_190_A] | > 1 | 0.101 to 1 | 10 to 100
COC(=O)N[C@H](C(=O)N1CCC[C@H]1c1ncc(-c2ccc(-c3ccc(-c4cnc(C5C6CCC(C6)[C@H]5C(=O)N(NC(=O)OC)C(C)C)[nH]4)cc3)c(OC)c2)[nH]1)C(C)C (stereo partly drawn) [AA_190_B] | > 1 | 0.101 to 1 | 10 to 100
COC(=O)NC(C(=O)N1CCC[C@H]1c1ncc(-c2ccc(-c3ccc(-c4cnc(C5C6CCC(C6)[C@@H]5C(=O)NCc5cccnc5)[nH]4)cc3)cc2)[nH]1)C1CCOCC1 (stereo partly drawn) [AA_191] | > 1 | 0.101 to 1 | 1 to 10
COC(=O)N[C@H](C(=O)N1CC2(C[C@H]1c1ncc(-c3ccc(-c4ccc(-c5cnc(C6C7CCC(C7)[C@H]6C(=O)NCc6cccnc6)[nH]5)cc4)cc3)[nH]1)OCCO2)C(C)C (stereo partly drawn) [AA_192_B] | > 1 | 0.001 to 0.1 | 1 to 10
COC(=O)N[C@H](C(=O)N1CCC[C@H]1c1ncc(-c2ccc(-c3ccc(-c4cnc([C@@H]5C6CCC(C6)[C@H]5C(=O)NCCO)[nH]4)cc3)cc2)[nH]1)C(C)C (stereo partly drawn) [AA_193] | > 1 | 0.001 to 0.1 | 1 to 10
COC(=O)N[C@H](C(=O)N1CCC[C@H]1c1ncc(-c2ccc(-c3ccc(-c4cnc([C@H]5C6CCC(C6)[C@@H]5C(=O)NCc5ccccc5N)[nH]4)cc3)cc2)[nH]1)C(C)C (stereo partly drawn) [AA_194] | > 1 | 0.001 to 0.1 | 10 to 100
COC(=O)N[C@H](C(=O)N1CCC[C@H]1c1ncc(-c2ccc(-c3ccc(-c4cnc([C@H]5C6CCC(C6)[C@@H]5C(=O)N(C)c5ccccn5)[nH]4)cc3)cc2)[nH]1)C(C)C (stereo partly drawn) [AA_195_A] | > 1 | 0.001 to 0.1 | 0.101 to 1
COC(=O)N[C@H](C(=O)N1CCC[C@H]1c1ncc(-c2ccc(-c3ccc(-c4cnc([C@@H]5C6CCC(C6)[C@H]5C(=O)N(C)c5ccccn5)[nH]4)cc3)cc2)[nH]1)C(C)C (stereo partly drawn) [AA_195_B] | > 1 | 0.001 to 0.1 | 1 to 10
COC(=O)N[C@H](C(=O)N1CCC[C@H]1c1ncc(-c2ccc(-c3ccc(-c4cnc([C@@H]5[C@H]6CC[C@H](C6)[C@H]5C(=O)N(C)c5ccccn5)[nH]4)cc3)cc2)[nH]1)C(C)C [AA_195_ENDOA2] | > 1 | 0.001 to 0.1 | 0.101 to 1
COC(=O)N[C@H](C(=O)N1CCC[C@H]1c1ncc(-c2ccc(-c3ccc(-c4cnc([C@H]5C6CCC(C6)[C@@H]5C(=O)NCc5cccs5)[nH]4)cc3)cc2)[nH]1)C(C)C (stereo partly drawn) [AA_196_A] | > 1 | 0.001 to 0.1 | 1 to 10
COC(=O)N[C@H](C(=O)N1CCC[C@H]1c1ncc(-c2ccc(-c3ccc(-c4cnc([C@@H]5C6CCC(C6)[C@H]5C(=O)NCc5cccs5)[nH]4)cc3)cc2)[nH]1)C(C)C (stereo partly drawn) [AA_196_B] | > 1 | 0.001 to 0.1 | 10 to 100
COC(=O)N[C@H](C(=O)N1CCC[C@H]1c1ncc(-c2ccc(-c3ccc(-c4cnc([C@H]5C6CCC(C6)[C@@H]5C(=O)NCc5cccnc5)[nH]4)cc3)c(F)c2)[nH]1)C(C)C (stereo partly drawn) [AA_197_A] | > 1 | 0.001 to 0.1 | 1 to 10
COC(=O)N[C@H](C(=O)N1CCC[C@H]1c1ncc(-c2ccc(-c3ccc(-c4cnc([C@H]5C6CCC(C6)[C@@H]5C(=O)NCc5ccco5)[nH]4)cc3)cc2)[nH]1)C(C)C (stereo partly drawn) [AA_198_A] | > 1 | 0.001 to 0.1 | 1 to 10
COC(=O)N[C@H](C(=O)N1CCC[C@H]1c1ncc(-c2ccc(-c3ccc(-c4cnc([C@@H]5C6CCC(C6)[C@H]5C(=O)NCc5ccco5)[nH]4)cc3)cc2)[nH]1)C(C)C (stereo partly drawn) [AA_198_B] | > 1 | 0.001 to 0.1 | 10 to 100
COC(=O)N[C@H](C(=O)N1CCC[C@H]1c1ncc(-c2ccc(-c3ccc(-c4cnc([C@H]5C6CCC(C6)[C@@H]5C(=O)NCc5cccc(N)c5)[nH]4)cc3)cc2)[nH]1)C(C)C (stereo partly drawn) [AA_199_A] | > 1 | 0.001 to 0.1 | 1 to 10
COC(=O)N[C@H](C(=O)N1CCC[C@H]1c1ncc(-c2ccc(-c3ccc(-c4cnc([C@@H]5C6CCC(C6)[C@H]5C(=O)NCc5cccc(N)c5)[nH]4)cc3)cc2)[nH]1)C(C)C (stereo partly drawn) [AA_199_B] | > 1 | 0.001 to 0.1 | 10 to 100
